Measured values as given in patent publication US9145415B2, “Nitrogen-containing heterocyclic compound or salt thereof” (FUJIFILM Corporation, priority 2012, dated 2015).
Where two headings read alike, the source gives them in different places.

Columns and labels:
Molm-13 cells = test: Leukemia cell proliferation inhibition test (ATPlite), Molm-13; assay type: cell-based; conditions: Homo sapiens, read-out: MOLM13 cell proliferation inhibition effect
In short: (§1)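 Proliferation inhibition is quantified from total cellular ATP, measured by luciferase luminescence, after cells grow with compound for 72 hours. The GI50 is the concentration giving half the signal of the 0.1% DMSO control, fitted to a sigmoid curve from duplicate points.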

[1] = target: T1, human FLT3 protein (FLT3 (WT)) (Homo sapiens, UniProt P36888); test: FLT3 inhibition test (FLT3 enzyme inhibition, time-resolved fluorescence of substrate peptide phosphorylation); assay type: biochemical; conditions: read-out: FLT3 (WT) enzyme inhibition activity
T1 construct: human FLT3 protein (intracellular region, 564 to 993 aa); GST; purchased Carna Biosciences; host or cells: baculovirus expression system
T1 sequence (P36888 564-993): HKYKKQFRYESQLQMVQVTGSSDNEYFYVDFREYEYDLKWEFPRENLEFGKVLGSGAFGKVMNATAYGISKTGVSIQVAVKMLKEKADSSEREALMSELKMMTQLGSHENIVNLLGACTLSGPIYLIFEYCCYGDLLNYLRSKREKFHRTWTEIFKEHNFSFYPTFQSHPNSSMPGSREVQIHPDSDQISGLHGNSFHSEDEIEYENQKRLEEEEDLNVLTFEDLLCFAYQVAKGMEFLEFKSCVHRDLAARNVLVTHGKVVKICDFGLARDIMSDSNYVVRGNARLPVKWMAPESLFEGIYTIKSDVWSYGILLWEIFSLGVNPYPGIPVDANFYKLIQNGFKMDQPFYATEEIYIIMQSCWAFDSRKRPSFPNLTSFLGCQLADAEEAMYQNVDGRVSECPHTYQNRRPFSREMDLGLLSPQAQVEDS
In short: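 Substrate peptide phosphorylation detected by time-resolved fluorescence after a 30 min kinase reaction at 25° C with 50 μM ATP (final). Beforehand, compound and FLT3 (WT, 1.2 μg) stood 15 min at 25° C in HEPES buffer pH 7.5 containing MgCl2, NaCl, BSA and DTT.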

MV4-11 cells = test: Leukemia cell proliferation inhibition test (ATPlite), MV4-11; assay type: cell-based; conditions: Homo sapiens, read-out: MV4-11 cell proliferation inhibition effect
In short: as §1

[2] = MOLM-13, 72 h, Molm-13, 72 hours culture, ATPlite, GI50 per method
[3] = GST-fused human FLT3 (564 to 993 aa), ATP 50 μM
[4] = MV4-11, 72 h, MV4-11, 72 hours culture, ATPlite, GI50 per method

IC50 (Molm-13 cells; [2]) [µM]	IC50 [1, 3] [µM]	IC50 (MV4-11 cells; [4]) [µM]	IC50 (Molm-13 cells; MOLM-13, MOLM13 cell) [µM]	IC50 ([1]; FLT3 (WT)) [µM]	IC50 (MV4-11 cells; MV4-11, MV4-11 cell) [µM]	SMILES
0.01 to 0.1	< 0.01	< 0.01				C[C@@H](C(=O)NCCCC#Cc1cnc(Nc2cncc(F)c2)nc1NC1CC1)N(C)C(=O)/C=C/CN(C)C [Compound 9-22]
			< 0.01	< 0.01	< 0.01	CNc1ncc(C#CCCCNC(=O)[C@H](C)N(C)C(=O)/C=C/CN(C)C)c(Nc2ccc(OC)nc2)n1 [Compound 22-23]
< 0.01	< 0.01	< 0.01				CCCNc1nc(Nc2ccc(C#N)cc2)ncc1C#CCCCNC(=O)[C@@H]1C[C@@H](OC)CN1C(=O)/C=C/CN(C)C [Compound 7-60]
0.01 to 0.1	< 0.01	< 0.01				CCCNc1nc(Nc2ccc(C)nc2)ncc1C#CCCCNC(=O)[C@H](C)N(C)C(=O)/C=C/CN(C)C [Compound 21-17]
> 1	0.01 to 0.1	> 1				C=CC(=O)NCC(=O)NCCNC(=O)c1cnc(NCCc2ccncc2)nc1NCCC [Compound 2-18]
			< 0.01	< 0.01	< 0.01	CNc1ncc(C#C[C@@H]2CCC[C@H](NC(=O)[C@H](C)N(C)C(=O)/C=C/CN(C)C)C2)c(Nc2ccc(OC)cc2)n1 [Compound 21-36]
< 0.01	< 0.01	< 0.01				C[C@@H](C(=O)NCCCC#Cc1cnc(Nc2ccc3[nH]ncc3c2)nc1NC1CC1)N(C)C(=O)/C=C/CN(C)C [Compound 10-72]
0.01 to 0.1	< 0.01	0.01 to 0.1				C[C@@H](C(=O)NCCCC#Cc1cnc(Nc2cccc(C#N)c2)nc1N1CCOCC1)N(C)C(=O)/C=C/CN(C)C [Compound 9-2]
< 0.01	< 0.01	< 0.01				CCCNc1nc(Nc2ccnc(OC)c2)ncc1C#CCCCNC(=O)CN(C)C(=O)/C=C/CN(C)C [Compound 9-38, (E)-4-(Dimethylamino)-N-(2-((5-(2-((2-methoxypyridin-4-yl)amino)-4-(propylamino)pyrimidin-5-yl)-4-pentyn-1-yl)amino)-2-oxoethyl)-N-methyl-2-butenamide]
< 0.01	< 0.01	< 0.01				C[C@@H](C(=O)NCCCC#Cc1cnc(Nc2ccc(C#N)cc2)nc1NC1CCCC1)N(C)C(=O)/C=C/CN(C)C [Compound 10-48]
0.01 to 0.1	< 0.01	0.01 to 0.1				C=CC(=O)NCCOc1cccc(NC(=O)c2cnc(NCCc3ccncc3)nc2NCCC)c1 [Compound 2-20]
			< 0.01	< 0.01	< 0.01	CCCNc1nc(Nc2cccc(-n3ccnn3)c2)ncc1C#CCCCNC(=O)[C@H](C)N(C)C(=O)/C=C/CN(C)C [Compound 22-20]
< 0.01	< 0.01	< 0.01				C=CC(=O)N(C)CC(=O)NCCCNC(=O)c1cnc(Nc2ccc3cnccc3c2)nc1NCCC [Compound 6-6]
< 0.01	< 0.01	< 0.01				CCCNc1nc(NCCc2ccncc2)ncc1C(=O)Nc1cccc(NC(=O)CNC(=O)/C=C/CN(C)C)c1 [Compound 2-9]
< 0.01	< 0.01	< 0.01				C[C@@H](C(=O)NCCCC#Cc1cnc(Nc2ccc(C#N)cc2)nc1N1CCCC(F)(F)C1)N(C)C(=O)/C=C/CN(C)C [Compound 10-44]
< 0.01	< 0.01	< 0.01				CCNc1nc(Nc2cccc(F)c2)ncc1C#C[C@@H]1CCC[C@H](NC(=O)[C@H](C)N(C)C(=O)/C=C/CN(C)C)C1 [Compound 21-27]

IC50 (Molm-13 cells; [2]) [µM]	IC50 [1, 3] [µM]	IC50 (MV4-11 cells; [4]) [µM]	IC50 (Molm-13 cells; MOLM-13, MOLM13 cell) [µM]	IC50 ([1]; FLT3 (WT)) [µM]	IC50 (MV4-11 cells; MV4-11, MV4-11 cell) [µM]	SMILES
< 0.01	< 0.01	< 0.01				CCCNc1nc(Nc2cccc(F)c2)ncc1C#CCCCNC(=O)[C@@H]1C[C@H](O)CN1C(=O)/C=C/CN(C)C [Compound 7-67]
< 0.01	< 0.01	< 0.01				COCCCNc1nc(Nc2ccnc(OC)c2)ncc1C#CCCCNC(=O)[C@@H]1C[C@H](O)CN1C(=O)/C=C/CN(C)C [Compound 9-33]
0.01 to 0.1	0.01 to 0.1	0.01 to 0.1				C=CC(=O)NCC(=O)N1CCC(NC(=O)c2cnc(NCCc3ccncc3)nc2NCCC)CC1 [Compound 6-19]
< 0.01	< 0.01	< 0.01				CCCOc1nc(Nc2ccc(C#N)cc2)ncc1C#C[C@@H]1CCC[C@H](NC(=O)[C@H](C)N(C)C(=O)/C=C/CN(C)C)C1 [Compound 21-13]
0.01 to 0.1	< 0.01	0.01 to 0.1				CCCNc1nc(Nc2cccc(C#N)c2)ncc1C(=O)Nc1cccc(NC(=O)[C@H](C)N(C)C(=O)/C=C/CN(C)C)c1 [Compound 6-3, (S,E)-2-((3-cyanophenyl)amino)-N-(3-(2-(4-(dimethylamino)-N-methyl-2-butenamido)propanamido)phenyl)-4-(propylamino)pyrimidine-5-carboxamide]
< 0.01	< 0.01	< 0.01				C[C@@H](C(=O)NCCCC#Cc1cnc(Nc2ccc(F)nc2)nc1NCC(F)(F)F)N(C)C(=O)/C=C/CN(C)C [Compound 10-33]
< 0.01	< 0.01	< 0.01				CCCNc1nc(Nc2ccnc(F)c2)ncc1C#C[C@H]1C[C@@H](NC(=O)[C@H](C)N(C)C(=O)/C=C/CN(C)C)C1 (relative stereo) [Compound 14-4, (E)-4-(Dimethylamino)-N—((S)-1-(((1S*,3R*)-3-((2-((2-fluoropyridin-4-yl)amino)-4-(propylamino)pyrimidin-5-yl)ethynyl)cyclobutyl)amino)-1-oxopropan-2-yl)-N-methyl-2-butenamide]
0.1 to 1	0.01 to 0.1	0.1 to 1				CCCNc1nc(Nc2cccc(F)c2)ncc1C#CCCCNC(=O)[C@H](C(C)CC)N(C)C(=O)/C=C/CN(C)C (stereo partly drawn) [Compound 7-12]
0.1 to 1	< 0.01	0.01 to 0.1				C=CC(=O)NCCC(=O)Nc1cccc(NC(=O)c2cnc(NCCc3ccncc3)nc2NCCC)c1 [Compound 2-7]
0.01 to 0.1	< 0.01	< 0.01				CCCNc1nc(Nc2ccc3scnc3c2)ncc1C#CCCCNC(=O)[C@H](C)N(C)C(=O)/C=C/CN(C)C [Compound 21-15]
< 0.01	< 0.01	< 0.01				CNc1nc(Nc2ccc(OC)c(F)c2)ncc1C#C[C@H]1C[C@@H](NC(=O)[C@H](C)N(C)C(=O)/C=C/CN(C)C)C1 [Compound 13-16, (E)-4-(Dimethylamino)-N—((S)-1-(((1S,3R)-3-((2-((3-fluoro-4-methoxyphenyl)amino)-4-(methylamino)pyrimidin-5-yl)ethynyl)cyclobutyl)amino)-1-oxopropan-2-yl)-N-methyl-2-butenamide]
< 0.01	< 0.01	< 0.01				CNc1nc(Nc2ccc(C#N)cc2)ncc1C#C[C@@H]1CCC[C@H](NC(=O)[C@H](C)N(C)C(=O)/C=C/CN(C)C)C1 [Compound 15-5, (E)-N—((S)-1-(((1S,3R)-3-((2-((4-Cyanophenyl)amino)-4-(methylamino)pyrimidin-5-yl)ethynyl)cyclohexyl)amino)-1-oxopropan-2-yl)-4-(dimethylamino)-N-methyl-2-butenamide]
< 0.01	< 0.01	< 0.01				CCCNc1nc(Nc2ccc(C#N)cc2)ncc1C#CC(C)(C)CCNC(=O)[C@H](C)N(C)C(=O)/C=C/CN(C)C [Compound 9-26]
0.01 to 0.1	0.01 to 0.1	0.01 to 0.1				CCCNc1nc(NC)ncc1C#CCCCNC(=O)[C@H](C)N(C)C(=O)/C=C/CN(C)C [Compound 11-1, (S,E)-4-(dimethylamino)-N-methyl-N-(1-((5-(2-(methylamino)-4-(propylamino)pyrimidin-5-yl)-4-pentyn-1-yl)amino)-1-oxopropan-2-yl)-2-butenamide]
0.01 to 0.1	< 0.01	< 0.01				CCCNc1nc(Nc2ccc(C#N)cc2)ncc1C#C[C@H]1CCC[C@@H](NC(=O)[C@H](C)N(C)C(=O)/C=C/CN(C)C)C1 [Compound 13-3]
< 0.01	< 0.01	< 0.01				COCCCNc1nc(Nc2ccc3[nH]ncc3c2)ncc1C#CCCCNC(=O)[C@H](C)N(C)C(=O)/C=C/CN(C)C [Compound 10-62]
